From patent US20240216344A1, “THIAZOLIDINEDIONE ANALOGS FOR THE TREATMENT OF NAFLD AND METABOLIC DISEASES” (Cirius Therapeutics, Inc., priority 2019, published 2024)

System: patients with biopsy-proven NASH with fibrosis and no cirrhosis
Assay: EMMINENCE Phase 2b trial, safety and weight
Type: in vivo
Method: The primary efficacy endpoint was assessed at 12 months. Clinic visits were conducted at baseline, 1, 2, 3, 6, 9, and 12 months, followed 2 weeks later by a safety visit.
Safety: Safety was evaluated by adverse event incidence, and changes in clinical laboratory values, vital signs, and ECG parameters. Major adverse cardiovascular events (MACE) including death, non-fatal myocardial infarction (MI), unstable angina (USA) hospitalization, hospital admission for heart failure (HF), or non-fatal ischemic stroke; liver events including ascites, hepatic encephalopathy, variceal hemorrhage, hepatocellular carcinoma (HCC), or liver transplant; severe hypoglycemia; and bone fracture requiring surgery or hospitalization were adjudicated by an independent physician.
Using a modified intent-to-treat approach, treated patients were included for analysis in their randomly-assigned treatment groups. Participation of sites with serious GCP or quality concerns were terminated and their data excluded from the analyses. Post-baseline measures through 14 days after the last study drug dose were included. […] The central histopathologist's re-read of baseline biopsies was used as baseline. Patients who no longer qualified on re-read were included in the analyses. […] Stratification-adjusted risk differences adjusted similarly are provided. The primary analyses included only observed data; sensitivity analyses included multiply-imputing missing follow-up and considering missing follow-up as a non-responder. Each active dose was compared to placebo regarding changes in NASH CRN scores using analysis of covariance with adjustment for age, sex, diabetes mellitus, Vitamin E≥400 IU, baseline fibrosis F1 versus F2/F3, and the baseline value. Changes in laboratory markers from baseline to 6 months and to 12 months were analyzed similarly.

## COc1cccc(C(=O)COc2ccc(CC3SC(=O)NC3=O)cc2)c1 (centres unmarked) [MSDC-0602K]
62.5 mg
  Non-cardiac chest pain (SAE): 1 patients
  Subjects with TEAEs Leading to Study Drug Discontinuation: 2 (2.0) n (%)
  Subjects with TEAEs Related to Study Drug: 22 (22.2) n (%)
  Subjects with TEAEs Related to Study Drug and Leading to Study Drug Discontinuation: 0 (0.0) n (%)
  Subjects with any Treatment-Emergent Adverse Event (TEAE): 78 (78.8) n (%)
  TESAE: General disorders and administration site conditions: 1 ( 1.0) n (%)
  TESAE: Non-cardiac chest pain: 1 ( 1.0) n (%)
  adverse events of edema: 6 patients
  fractures requiring hospitalization or surgery: 1 patients
  treatment discontinuation rate: 9.1%
  unadjusted median weight change: 0.82 kg
125 mg
  Non-cardiac chest pain (SAE): 1 patients
  Subjects with TEAEs Leading to Study Drug Discontinuation: 3 (3.1) n (%)
  Subjects with TEAEs Related to Study Drug: 26 (26.5) n (%)
  Subjects with TEAEs Related to Study Drug and Leading to Study Drug Discontinuation: 1 (1.0) n (%)
  Subjects with any Treatment-Emergent Adverse Event (TEAE): 76 (77.6) n (%)
  TESAE: General disorders and administration site conditions: 2 (2.0) n (%)
  TESAE: Non-cardiac chest pain: 1 (1.0) n (%)
  adjudicated HF hospitalization: One
  adjudicated MACE: two
  adverse events of edema: 11 patients
  fractures requiring hospitalization or surgery: 1 patients
  treatment discontinuation rate: 12.2%
  unadjusted median weight change: 1.10 kg
  unrelated deaths: one
250 mg
  Subjects with TEAEs Leading to Study Drug Discontinuation: 1 (1.0) n (%)
  Subjects with TEAEs Related to Study Drug: 25 (24.8) n (%)
  Subjects with TEAEs Related to Study Drug and Leading to Study Drug Discontinuation: 0 (0.0) n (%)
  Subjects with any Treatment-Emergent Adverse Event (TEAE): 77 (76.2) n (%)
  TESAE: General disorders and administration site conditions: 1 (1.0) n (%)
  TESAE: Non-cardiac chest pain: 0 (0.0) n (%)
  adjudicated severe hypoglycemia event: One
  adverse events of edema: 7 patients
  fractures requiring hospitalization or surgery: 2 patients
  treatment discontinuation rate: 12.9%
  unadjusted median weight change: 2.28 kg
12 months daily oral
  tolerability: well tolerated
All groups
  adjudicated liver events: no adjudicated liver events occurred
